Laboratory results reported in patent US10323013B2, “Inhibitors of the IRE-1/XBP-1 pathway and methods of using thereof” (H. LEE MOFFITT CANCER CENTER AND RESEARCH INSTITUTE, INC., priority 2013, dated 2019).
Several values for one entry are separate records, joined by “and”; a condition that tells them apart may be missing. Equal values may be shown once. Read-outs that look alike come from different tables or passages of the source.

Assays:
[1] = tested on: Eμ-TCL1 mice with high CLL burden; format: in vivo; conditions: A-I06 60 mg/kg i.p.
Procedure: Older Eμ-TCL1 mice (age >8 months) with high CLL burden in the peripheral blood were identified by examining the percentage of CLL cells in PBMCs. These mice then received intraperitoneal injections with A-I06 (60 mg/kg) dissolved in Cremophor® ELP (vehicle, Sigma). The progression of CLL was monitored by flow cytofluorometry.

[2] = tested on: MEC1 cells; assay: Cell proliferation XTT assay, MEC1; format: cell-based, human; conditions: MEC1, 50 μM, first 48 h
Procedure: (§1) Eμ-TCL1, MEC1, MEC2, WaC3, or primary human CLL cells were grown in 96-well cell culture plates overnight and then treated with fresh phenol red-free culture medium containing STF-083010 (50 μM), A-I06 (50 μM), A-I07 (50 μM) or fludarabine (30 μM). […] Briefly, 50 μl XTT labeling reagent was combined with 100 μl electron-coupling reagent, and the mixture was applied to each well of the 96-well plates. The test was based on cleavage of the yellow tetrazolium salt XTT by mitochondrial dehydrogenases of the metabolic active cells to form the orange formazan compound, which can be spectrophotometrically quantified at 492 nm using a BioTek microplate reader.

[3] = tested on: XBP-1s expression; assay: Inhibition of XBP-1s expression in LPS-stimulated mouse B cells (immunoblots); format: cell-based; conditions: for inhibition of XBP-1s expression (in words): LPS 48 h, then inhibitor 20 μM for 24 h (Example 3 prints 20 mM); for inhibition of XBP-1 expression (in words): inhibitor 50 μM (b479 prints 50 mM), also Eμ-TCL1 CLL and WaC3 cells
Procedure: The protein concentrations of the supernatants were determined by BCA assay (Pierce). […] Proteins were transferred to nitrocellulose membranes, blocked in 5% milk (wt/vol in PBS), and immunoblotted with the indicated antibodies and appropriate horseradish peroxidase-conjugated secondary antibodies. Following multiple washes in PBS, the blots were developed using Western Lighting Chemiluminescence Reagent (Perkin-Elmer).
Protein concentrations were determined by BCA assays (Pierce). […] Proteins were transferred to nitrocellulose membranes, blocked in 5% non-fat milk (wt/vol in PBS), and immunoblotted with indicated primary antibodies and appropriate horseradish peroxidase-conjugated secondary antibodies. Immunoblots were developed using Western Lighting Chemiluminescence Reagent (Perkin-Elmer).

[4] = tested on: Eμ-TCL1 CLL cells; assay: Cell proliferation XTT assay, Eμ-TCL1 CLL cells; format: cell-based, mouse; conditions: 50 μM, after 3 days
Procedure: as §1

[5] = tested on: Eμ-TCL1 CLL cells; assay: Annexin V/DAPI flow cytofluorometry of cultured Eμ-TCL1 CLL cells; format: cell-based, mouse; conditions: 50 μM or 100 μM for 24 h
Procedure: PBMCs were non-lethally obtained from mice following the submandibular bleed and RBC lysis (Qiagen). Nonspecific staining was first blocked for 30 min at 4° C. with 300 μl FBS per 1.0×10^6 cells. Cell surface staining was accomplished by 30-min incubation at 4° C. with 1 μl per 1.0×10^6 cells of the following anti-mouse antibodies: B220-Alexa488, CD19-APC-Cy7 (BD Pharmingen), IgM-Alexa568 (Invitrogen), CD5-APC (eBioscience) and CD138-PE (BD Pharmingen). Viability staining was accomplished using DAPI exclusion (10 μg/ml; 200 μl/1×10^6 cells) during acquisition. Apoptotic cells were detected by Annexin V-PE staining (BD Pharmingen). Acquisition of B-cell and CLL cell populations was performed on a LSRII cytometer (BD Biosciences) harboring a custom configuration for the H. Lee Moffitt Cancer Center & Research Institute, having multiple laser beams and detectors for excitation of various fluorophores and wide emission spectrum detection. Mid-range Spherotech FL1 fluorescent rainbow beads (BD Biosciences) were used to maintain consistent gains for all parameters across time points. Analysis of cytometry data was achieved using FlowJo software version 7.6.1 (Tree Star Inc.).

[6] = tested on: MEC2 cells; assay: Cell proliferation XTT assay, MEC2; format: cell-based, human; conditions: MEC2, 50 μM, first 48 h
Procedure: as §1

[7] = tested on: primary human CLL cells; assay: Cell proliferation XTT assay, primary human CLL cells; format: cell-based; conditions: primary human CLL cells, 50 μM, 3 days
Procedure: as §1

[8] = target: recombinant hIRE-1 (Homo sapiens (Human), UniProt O75460); assay: In vitro IRE-1 RNase FRET-suppression assay; format: biochemical
Sequence of recombinant hIRE-1 (O75460 547-977): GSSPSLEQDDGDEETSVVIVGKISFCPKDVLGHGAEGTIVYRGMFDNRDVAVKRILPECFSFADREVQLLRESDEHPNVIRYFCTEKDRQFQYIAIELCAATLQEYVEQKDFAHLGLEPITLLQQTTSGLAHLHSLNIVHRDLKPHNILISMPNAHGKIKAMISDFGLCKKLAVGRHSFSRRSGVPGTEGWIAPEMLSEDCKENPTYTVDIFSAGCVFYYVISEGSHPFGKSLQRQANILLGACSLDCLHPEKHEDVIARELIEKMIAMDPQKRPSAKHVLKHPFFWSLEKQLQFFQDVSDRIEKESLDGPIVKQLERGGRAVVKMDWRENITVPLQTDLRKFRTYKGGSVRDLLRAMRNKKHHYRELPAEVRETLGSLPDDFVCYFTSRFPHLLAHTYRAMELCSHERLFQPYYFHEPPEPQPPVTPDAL
Procedure: Fluorescence was read at various time points using a Biotek Synergy H1 plate reader with excitation and emission at 620 nm and 680 nm, respectively. […] All fluorescence readings were corrected using background values from wells containing only 120 μL of 50 nM XBP-1 RNA.
Fluorescence was read at various time points using a Biotek Synergy H1 plate reader with excitation and emission at 620 nm and 680 nm, respectively. […] All fluorescence readings were corrected using background values from wells containing only 120 mL of 50 nM XBP-1 RNA.

[9] = tested on: WaC3 cells; assay: Cell proliferation XTT assay, WaC3; format: cell-based, human; conditions: for growth response (in words): WaC3, 50 μM, course of 4 days
Procedure: as §1

[10] = tested on: XBP-1 mRNA splicing; assay: XBP-1 mRNA splicing by RT-PCR; format: cell-based; conditions: human WaC3 CLL cells, 24 h
From the text: Total RNA was isolated using TRIzol reagent (Invitrogen). Complementary DNA was synthesized from RNA using Superscript II reverse transcriptase (Invitrogen).

[11] = Degradation (chemical stability) studies by HPLC/LCMS; format: physicochemical; conditions: over 12 hours, rt
Procedure: The degradation of analog 24 was plotted as a function of time upon exposure to FRET-suppression assay buffer at rt. Aliquots were partitioned with MeOH and injected onto LCMS (UV monitored at 320 nm) and peaks integrated relative to internal standard.
A 20 mM stock solution of B-I09 in DMSO was diluted to 0.5 mM in FRET assay buffer (20 mM HEPES, pH 7.5, 50 mM KOAc, 0.5 mM MgCl2, 3 mM DTT, 0.4% PEG) or cell culture media (RPMI supplemented with 10% fetal bovine serum). The FRET assay buffer and cell culture media solutions were incubated at room temperature and 37° C., respectively. At various time points, a 50 μL aliquot of each solution was added to 50 μL of methanol and the mixture analyzed by analytical reverse-phase HPLC (C18 4 mm×150 mm column, 1 mL/min flow rate) with acetonitrile/water (0.1% formic acid) as eluent. Absorbance was read at 320 nm and the degradation product (aldehyde) was identified by LCMS and co-injection with pure synthetic sample. Degradation studies were carried out in duplicate and data points reported as the mean of two values.

[12] = Aqueous solubility (stated in words); format: physicochemical
[13] = STF-083010 stability studies by RP-HPLC; format: physicochemical
Procedure: STF-083010 stability studies were performed using analytical reverse-phase high pressure liquid chromatography (RP-HPLC) with a C18 column (4 mm×150 mm) and a 10-90% linear gradient of acetonitrile in water (containing 0.1% formic acid) as eluent over 20 minutes (1 ml/min flow rate). Compounds were detected at λ=254 nm. Crystalline STF-083010 was analyzed on a standard Bruker X8 Apex2 CCD-based X-ray diffractometer, and the solid-state structure was solved and refined with the Bruker SHELXTL (version 6.12) software package. Diffraction data (excluding structure factors) for STF-083010 have been deposited with the Cambridge Crystallographic Data Centre as supplementary CCDC publication number 850879.

[14] = text values of Example 3, unit printed as mM, read-out: IC50 in FRET-suppression assay

With `O=Cc1c(O)ccc2ccccc12` [A-I06, 2-hydroxynaphthaldehyde] the “apoptosis of CD5+/B220+ CLL cells in treated mice (in words)” value [1] was “increase of Annexin V+ apoptotic CD5+/B220+CLL cells”, the “apoptosis of CD5−/B220+ B cells in treated mice (in words)” value [1] was “does not induce CD5−/B220+ B cells to undergo apoptosis” and the “CLL burden (in words)” value ([1]; Day 0, 1, 12, 13) was “reduced CLL burden”. For the same compound, the growth inhibition [2] was about 20%, the “inhibition of XBP-1s expression (in words)” value [3] was “requires a higher concentration to achieve complete inhibition” and the “inhibition of XBP-1 expression (in words)” value [3] was “can suppress the expression of XBP-1”. For the same compound, the “inhibition of XBP-1 expression (in words)” value ([3]; listed as 2) was “strong inhibition”, the growth inhibition [4] was about 70% and the “apoptosis (in words)” value [5] was “Increased apoptosis”. For the same compound, the growth inhibition [6] was about 20%, the “cytotoxic effect (in words)” value [7] was “significant cytotoxic effect” and the “IRE-1 RNase inhibitory activity in FRET-suppression assay (in words)” value (shortened to “IRE-1 RNase inhibitory activity”) [8] was “weaker activity”. The IC50 [8, 14] was 9.73 mM, the “growth response (in words)” value [9] was “gradually decreased growth” and the GI50 ([9]; read-out: GI50 (50% growth inhibition concentration), WaC3 cells, 48 h, XTT) was about 50 µM.
In the case of `O=Cc1c(O)ccc2ccccc12` [A-I07], the “IRE-1 RNase inhibitory activity” value [8] is reported as “no appreciable inhibition at 20 mM”.
For `O=S(=O)(NCc1c(O)ccc2ccccc12)c1cccs1` [B-A05], the “inhibition of XBP-1 expression (in words)” value [3] was “did not significantly alter XBP-1 expression”.
For `Cc1cc(=O)oc2c(C=O)c(O)ccc12` [Compound 4μ8C, 7-hydroxy-4-methyl-2-oxo-2H-chromene-8-carbaldehyde], the “inhibition of XBP-1s expression (in words)” value [3] was “strong inhibition” and the IC50 ([8]; 5 nM hIRE-1, 50 nM XBP-1 RNA, read-out: IC50 in FRET-suppression assay) was 0.000155 mM and 0.000206 mM.
In the case of `C=CCOC(=O)N1CCc2c(c(=O)oc3c(C=O)c(O)ccc23)C1` [Compound 21b, Allyl 7-formyl-8-hydroxy-5-oxo-4,5-dihydro-1H-chromeno[3,4-c]pyridine-3(2H)-carboxylate], the IC50 ([3]; Mus musculus, B-cell, LPS-stimulated B cells, 24 h, immunoblots, densitometry, approximate, read-out: IC50 for suppressing XBP-1s expression) is reported as about 5.1 µM.
In the case of `C=CCOC(=O)N1CCc2c(c(=O)oc3c(C4OCCCO4)c(O)ccc23)C1` [Compound 24, allyl 7-(1,3-dioxan-2-yl)-8-hydroxy-5-oxo-4,5-dihydro-1H-chromeno[3,4-c]pyridine-3(2H)-carboxylate], the “inhibition of splicing of XBP-1 mRNA (in words)” value [10] is reported as “highly effective” and the “decomposition of the 1,3-dioxane moiety in assay buffer (in words)” value [11] is reported as “no significant decomposition”.
With `C=CCOC(=O)N1CCc2c(c(=O)oc3c(C=O)c(OCc4ccccc4)ccc23)C1` [Compound 27, allyl 7-formyl-8-benzyloxy-5-oxo-4,5-dihydro-1H-chromeno[3,4-c]pyridine-3(2H)-carboxylate] the “IRE-1 RNase inhibitory activity” value [8] was “complete loss of potency below 20 mM” and the IC50 ([8]; In vitro IRE-1 RNase inhibition by analogs of 21b, FRET-suppression assay, read-out: IC50) was over 0.02 mM.
In the case of `N=C(N)N1CCc2c(c(=O)oc3c(C=O)c(O)ccc23)C1` [Compound 34, 7-Formyl-8-hydroxy-5-oxo-4,5-dihydro-1H-chromeno[3,4-c]pyridine-3(2H)-carboximidamide], the “solubility (in words)” value [12] is reported as “solubility decreased” and the “inhibition of XBP-1s expression (in words)” value [3] is reported as “did not effectively inhibit XBP-1s expression”.
In the case of `O=S(=O)(N=Cc1c(O)ccc2ccccc12)c1cccs1` [STF-083010], the “stability in 1:1 DMSO:water mixture (in words)” value ([13]; brief exposure) is reported as “complete decomposition”, the “stability of DMSO stock solutions (in words)” value ([13]; repeated freeze-thaw cycles) is reported as “readily hydrolyzed into precursors A-I06 and A-I07” and the growth inhibition [2] is reported as about 20%. For the same compound, the “inhibition of XBP-1 expression (in words)” value [3] was “can suppress the expression of XBP-1”, the growth inhibition [4] was about 70% and the growth inhibition [6] was about 20%. For the same compound, the “cytotoxic effect (in words)” value [7] was “significant cytotoxic effect”, the IC50 [8, 14] was 9.94 mM and the “growth response (in words)” value [9] was “gradually decreased growth”.
